Values quoted from earlier work in US20060292225A1, “WATER SOLUBLE ANALGESIC FORMULATIONS AND METHODS FOR PRODUCTION” (priority 2005, published 2006).
Where two headings read alike, the source gives them in different places.

Columns and labels:
[1] = test system: arthritis inflammation
[2] = aqueous, hydrolysis

CC(=O)Oc1ccccc1C(=O)O [aspirin, Acetylsalicylic acid]
rate of successful treatment ([1]; daily dosage 2500 mg): less than 10% | rate of successful treatment ([1]; daily dosages of 4,000 to 5,000 mg or greater): over 70% | incidence of side effects (nausea, gastric upset, pain) (higher anti-inflammatory dosages): about 25% | incidence of side effects (nausea, gastric upset, pain) (low analgesic dose levels, adult users): 2-10% | pH of maximum stability [2]: 2.4
